Blank lines part the entries; values can stand above or below the compound they belong to.
Experiments:
Format in all cases: cell-based
[1] = target: T1, cystic fibrosis transmembrane conductance regulator (CFTR) (Mus musculus, UniProt P26361); assay: whole-cell patch clamp; details: read-out: % stimulation at 20 μM
[2] = target: T1, cystic fibrosis transmembrane conductance regulator (CFTR)
[3] = target: T1, cystic fibrosis transmembrane conductance regulator (CFTR); assay: whole-cell patch clamp of native Cl- current in mouse sperm; details: read-out: % inhibition of db-cAMP-stimulated current (at 5 μM)

T1 sequence (P26361 whole entry): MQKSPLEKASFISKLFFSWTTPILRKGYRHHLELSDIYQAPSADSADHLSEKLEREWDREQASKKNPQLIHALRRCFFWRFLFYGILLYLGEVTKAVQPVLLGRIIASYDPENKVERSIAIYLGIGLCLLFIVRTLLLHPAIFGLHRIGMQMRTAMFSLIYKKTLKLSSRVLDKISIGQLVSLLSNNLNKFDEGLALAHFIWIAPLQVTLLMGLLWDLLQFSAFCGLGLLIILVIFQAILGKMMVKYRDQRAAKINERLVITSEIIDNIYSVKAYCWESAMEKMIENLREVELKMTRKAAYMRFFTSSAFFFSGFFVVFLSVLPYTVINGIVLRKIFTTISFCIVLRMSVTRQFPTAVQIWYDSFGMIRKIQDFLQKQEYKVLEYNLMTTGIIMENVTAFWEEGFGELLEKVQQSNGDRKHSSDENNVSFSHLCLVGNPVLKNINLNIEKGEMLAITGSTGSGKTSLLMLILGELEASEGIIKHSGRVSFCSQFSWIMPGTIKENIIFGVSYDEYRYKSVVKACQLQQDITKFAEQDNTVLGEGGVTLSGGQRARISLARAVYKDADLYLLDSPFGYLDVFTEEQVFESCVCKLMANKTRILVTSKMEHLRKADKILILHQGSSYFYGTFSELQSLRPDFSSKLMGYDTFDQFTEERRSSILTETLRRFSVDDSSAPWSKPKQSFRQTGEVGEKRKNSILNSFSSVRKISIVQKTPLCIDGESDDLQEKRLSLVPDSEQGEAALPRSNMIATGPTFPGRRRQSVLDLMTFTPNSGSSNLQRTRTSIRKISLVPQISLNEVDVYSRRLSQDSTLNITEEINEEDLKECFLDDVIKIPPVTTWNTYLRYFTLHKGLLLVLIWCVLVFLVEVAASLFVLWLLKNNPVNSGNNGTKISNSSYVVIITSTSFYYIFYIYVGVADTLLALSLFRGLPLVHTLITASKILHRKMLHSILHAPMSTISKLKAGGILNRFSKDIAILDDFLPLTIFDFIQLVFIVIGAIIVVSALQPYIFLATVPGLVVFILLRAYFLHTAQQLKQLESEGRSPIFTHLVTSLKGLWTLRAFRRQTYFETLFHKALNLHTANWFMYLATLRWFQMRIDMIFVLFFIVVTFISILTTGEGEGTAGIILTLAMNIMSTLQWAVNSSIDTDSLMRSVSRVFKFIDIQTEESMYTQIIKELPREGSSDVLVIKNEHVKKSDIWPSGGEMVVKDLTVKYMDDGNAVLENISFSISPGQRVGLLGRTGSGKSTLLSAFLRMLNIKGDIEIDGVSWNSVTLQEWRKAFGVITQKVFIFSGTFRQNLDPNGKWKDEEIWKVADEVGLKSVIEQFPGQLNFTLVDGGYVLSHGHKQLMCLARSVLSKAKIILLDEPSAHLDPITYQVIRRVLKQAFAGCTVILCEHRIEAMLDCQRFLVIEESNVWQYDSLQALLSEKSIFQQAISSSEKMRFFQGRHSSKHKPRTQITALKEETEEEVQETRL

activation at 20 µM [1]: 54 ± 0.5%
SMILES: O=c1c(-c2ccc(O)cc2)coc2cc(O)cc(O)c12 [genistein]

SMILES: O=C(O)c1ccccc1Nc1ccccc1 [DPC]
IC50 [2]: ~175 µM

inhibition at 5 µM [3]: 60%
SMILES: O=C(O)c1ccc(/C=C2\SC(=S)N(c3cccc(C(F)(F)F)c3)C2=O)cc1 [CFTRinh-172, 3-[(3-trifluoromethyl)phenyl]-5-[(4 carboxyphenyl)methylene]-2-thioxo-4thiazolidinone]

Reference: paper PMC4076061 (Journal of cellular physiology, 2013)
